Experimental data taken from patent US7807663B2, “Therapeutic agents for diabetes” (Ajinomoto Co., Inc., priority 2003, dated 2010).
≈ marks a conversion by molar mass, not a printed value.

Each compound was assayed on adipose cells of rats (assay: Evaluation of the sugar transportation activity (2-[14C(U)]-deoxy-D-glucose incorporation)). Settings: concentration with reinforcing effect of 50% of that of insulin (100 nM) = 100%; rat adipose cells, 30 min pre-culture at 37° C., 5 min uptake.
Type: cell-based, Wistar rats
Method: 1. Preparation of Adipose Cells of Rats:
After the decapitation and venesection of 6 male Wistar rats (body weight: 150 to 200 g), an incision was made in the abdomen of each rat to extract 6 g in total of epididymal adipose tissues. The tissues were finely cut into 2 mm×2 mm pieces in 6 ml of KRH (Krebs-Ringer Hepes, composition: 130 mM of sodium chloride, 4.7 mM of potassium chloride, 1.2 mM of potassium dihydrogenphosphate, 1.2 mM of magnesium sulfate, 1 mM of calcium chloride and 25 mM of Hepes, pH=7.6) containing 5% of BSA (bovine serum albumin). 24 mg of collagenase (type I) was added thereto and the digestion treatment was conducted for about 40 minutes to obtain about 6 ml of isolated adipose cells. The collagenase was removed by the buffer exchange. 2% BSA/KRH solution was added to the residue for the re-suspension to obtain 45 ml of an adipose cell suspension.
2. Evaluation of the Sugar Transportation Activity:
The sugar transportation activity of the compound (I) of the present invention was evaluated with reference to a method described in a literature [Annual Review of Biochemistry, Vol. 55, p. 1059 (1986)]. In the test, 200 μL of the adipose cell suspension was poured in each polystyrene test tube, 100 μL of the solution of the test substance (by dilution of 10 mg/mL dimethyl sulfoxide solution with KRH) was added thereto, and the obtained mixture was shaken and then cultured at 37° C. for 30 minutes. The sugar transportation activity was evaluated by measuring the quantity of 2-[^14C(U)]-deoxy-D-glucose incorporated per a unit time. Namely, 2-[^14C(U)]-deoxy-D-glucose was added to the adipose cell suspension after the pre-culture (the final concentration: 0.5 μCi/sample). 5 minutes after, cytochalasin B (final concentration: 10 μM) was added to the mixture to terminate the sugar transportation. After forming a dinonyl phthalate layer, the obtained mixture was centrifuged to separate the adipose cells from the buffer. The quantity of 2-[^14C(U)]-deoxy-D-glucose contained in the adipose cell layer was determined with a liquid scintillation counter to determine the quantity of the incorporated sugar. In this evaluation system, when insulin (100 nM) having the effect of reinforcing the sugar transportation was used, the effect was about 7 times as high as that obtained in the insulin-free control group.
The results of the evaluation of the sugar transportation activity obtained by using 100 μg/mL of the compound (I) of the present invention are shown in Table 3. The sugar transportation activity in Table 3 was evaluated on the basis of the reinforcing effect of insulin (100 nM). The sugar transportation activity A in Table 3 was determined in terms of the concentration (EC50: μg/mL) of a test compound, having a reinforcing effect corresponding to 50% on the basis of the reinforcing effect of insulin (100 nM) having a reinforcing effect of 100%.
The symbols in Table 3 are as follows: • No: Compound No. in Tables 1 and 2, and • A: sugar transportation activity.
For `CCc1ccccc1[C@@H]1C2=C(CNC2=O)N(CC)[C@@H]2CCCC[C@H]2N1C(C)=O` [Compound 102], the “A: sugar transportation activity (EC50)” value was 5 µg/mL.
With `COc1ccccc1[C@@H]1C2=C(CNC2=O)N[C@@H]2CCCC[C@H]2N1C(=O)OCc1ccccc1` [Compound 39] the “A: sugar transportation activity (EC50)” value was 6 µg/mL.
In the case of `CCC(=O)N1[C@@H]2CCCC[C@H]2NC2=C(C(=O)NC2)[C@H]1c1ccccc1C` [Compound 83], the “A: sugar transportation activity (EC50)” value is reported as 2 µg/mL.
In the case of `O=C1NCC2=C1[C@@H](c1ccccc1Br)N(C(=O)CC(F)(F)F)[C@@H]1CCCC[C@H]1N2` [Compound 109], the “A: sugar transportation activity (EC50)” value is reported as 0.5 µg/mL.
`CCCC(=O)N1[C@@H]2CCCC[C@H]2NC2=C(C(=O)NC2)[C@H]1c1ccccc1Cl` [Compound 117] was tested, and the “A: sugar transportation activity (EC50)” value was 4 µg/mL.
`CCC(=O)N1[C@@H]2CCCC[C@H]2NC2=C(C(=O)NC2)[C@H]1c1ccccc1Cl` [Compound 116] was tested, and the “A: sugar transportation activity (EC50)” value was 3 µg/mL.
With `COC(=O)CCC(=O)N1[C@@H]2CCCC[C@H]2NC2=C(C(=O)NC2)[C@H]1c1ccccc1OC` [Compound 17] the “A: sugar transportation activity (EC50)” value was 4.8 µg/mL.
`CCOCC(=O)N1[C@@H]2CCCC[C@H]2NC2=C(C(=O)NC2)[C@H]1c1ccccc1OCc1ccccc1` [Compound 63] was tested, and the “A: sugar transportation activity (EC50)” value was 4 µg/mL.
`CCCC(=O)N1[C@@H]2CCCC[C@H]2NC2=C(C(=O)NC2)[C@H]1c1ccccc1OCC` [Compound 48] was tested, and the “A: sugar transportation activity (EC50)” value was 1.3 µg/mL.
For `COC(=O)N1[C@@H]2CCCC[C@H]2NC2=C(C(=O)NC2)[C@H]1c1ccccc1OC(C)C` [Compound 60], the “A: sugar transportation activity (EC50)” value was 4.8 µg/mL.
For `CCCC(=O)N1[C@@H]2CCCC[C@H]2NC2=C(C(=O)NC2)[C@H]1c1ccccc1OC` [Compound 3], the “A: sugar transportation activity (EC50)” value was 4.6 µg/mL.
`COc1ccccc1[C@@H]1C2=C(CNC2=O)N[C@@H]2CCCC[C@H]2N1C(=O)COc1ccccc1` [Compound 12] was tested, and the “A: sugar transportation activity (EC50)” value was 4.6 µg/mL.
`COc1ccccc1[C@@H]1C2=C(CNC2=O)N[C@@H]2CCCC[C@H]2N1C(=O)CCN` [Compound 23] was tested, and the “A: sugar transportation activity (EC50)” value was 8 µg/mL.
In the case of `CCOc1ccccc1[C@@H]1C2=C(CNC2=O)N[C@@H]2CCCC[C@H]2N1C(C)=O` [Compound 46], the “A: sugar transportation activity (EC50)” value is reported as 15 µg/mL.
With `COc1ccccc1[C@@H]1C2=C(CNC2=O)N[C@@H]2CCCC[C@H]2N1C(C)=O` [Compound 1] the “A: sugar transportation activity (EC50)” value was 1.3 µg/mL.
`O=C1NCC2=C1[C@@H](c1ccccc1F)N(C(=O)C1CC1)[C@@H]1CCCC[C@H]1N2` [Compound 125] was tested, and the “A: sugar transportation activity (EC50)” value was 2 µg/mL.
For `CCOCC(=O)N1[C@@H]2CCCC[C@H]2NC2=C(C(=O)NC2)[C@H]1c1ccccc1F` [Compound 126], the “A: sugar transportation activity (EC50)” value was 2 µg/mL.
In the case of `COC(=O)N1[C@@H]2CCCC[C@H]2NC2=C(C(=O)NC2)[C@H]1c1ccccc1F` [Compound 127], the “A: sugar transportation activity (EC50)” value is reported as 2 µg/mL.
With `CCC(=O)N1[C@@H]2CCCC[C@H]2NC2=C(C(=O)NC2)[C@H]1c1ccc(F)cc1OC` [Compound 70] the “A: sugar transportation activity (EC50)” value was 0.82 µg/mL.
With `COc1ccccc1[C@@H]1C2=C(CNC2=O)N[C@@H]2CCCC[C@H]2N1C(=O)CCCO` [Compound 19] the “A: sugar transportation activity (EC50)” value was 4.8 µg/mL.
In the case of `COc1cc(Cl)ccc1[C@@H]1C2=C(CNC2=O)N[C@@H]2CCCC[C@H]2N1C(C)=O` [Compound 73], the “A: sugar transportation activity (EC50)” value is reported as 6 µg/mL.
For `COCC(=O)N1[C@@H]2CCCC[C@H]2NC2=C(C(=O)NC2)[C@H]1c1ccccc1Cl` [Compound 119], the “A: sugar transportation activity (EC50)” value was 5 µg/mL.
In the case of `CCOCC(=O)N1[C@@H]2CCCC[C@H]2NC2=C(C(=O)NC2)[C@H]1c1ccccc1OC(C)C` [Compound 59], the “A: sugar transportation activity (EC50)” value is reported as 2 µg/mL.
For `CCOCC(=O)N1[C@@H]2CCCC[C@H]2NC2=C(C(=O)NC2)[C@H]1c1ccccc1OC` [Compound 11], the “A: sugar transportation activity (EC50)” value was 2.2 µg/mL.
In the case of `COc1ccccc1[C@@H]1C2=C(CNC2=O)N[C@@H]2CCCC[C@H]2N1C(=O)CCc1ccccc1` [Compound 25], the “A: sugar transportation activity (EC50)” value is reported as 0.9 µg/mL.
`CC(=O)N1[C@@H]2CCCC[C@H]2NC2=C(C(=O)NC2)[C@H]1c1ccccc1O` [Compound 66] was tested, and the “A: sugar transportation activity (EC50)” value was 3.7 µg/mL.
With `CCOCC(=O)N1[C@@H]2CCCC[C@H]2NC2=C(C(=O)NC2)[C@H]1c1ccccc1C` [Compound 84] the “A: sugar transportation activity (EC50)” value was 4 µg/mL.
With `COc1ccccc1[C@@H]1C2=C(CNC2=O)N[C@@H]2CCCC[C@H]2N1C(=O)Cc1ccccc1` [Compound 13] the “A: sugar transportation activity (EC50)” value was 5 µg/mL.
`COCC(=O)N1[C@@H]2CCCC[C@H]2NC2=C(C(=O)NC2)[C@H]1c1ccccc1C` [Compound 87] was tested, and the “A: sugar transportation activity (EC50)” value was 6 µg/mL.
For `COc1ccccc1[C@@H]1C2=C(CNC2=O)N[C@@H]2CCCC[C@H]2N1C(=O)COC(C)=O` [Compound 9], the “A: sugar transportation activity (EC50)” value was 5.9 µg/mL.
With `CC(=O)N1[C@@H]2CCCC[C@H]2NC2=C(C(=O)NC2)[C@H]1c1ccccc1OCc1ccccc1` [Compound 64] the “A: sugar transportation activity (EC50)” value was 3.6 µg/mL.
`CCNC(=O)N1[C@@H]2CCCC[C@H]2NC2=C(C(=O)NC2)[C@H]1c1ccccc1OCC` [Compound 56] was tested, and the “A: sugar transportation activity (EC50)” value was 12 µg/mL.
In the case of `COc1ccccc1[C@@H]1C2=C(CNC2=O)N[C@@H]2CCCC[C@H]2N1C(=O)CC(C)=O` [Compound 29], the “A: sugar transportation activity (EC50)” value is reported as 5.5 µg/mL.
`O=C1NCC2=C1[C@@H](c1ccccc1OC(F)(F)F)N(C(=O)CO)[C@@H]1CCCC[C@H]1N2` [Compound 68] was tested, and the “A: sugar transportation activity (EC50)” value was 2.7 µg/mL.
`COc1ccccc1CCC(=O)N1[C@@H]2CCCC[C@H]2NC2=C(C(=O)NC2)[C@H]1c1ccccc1OC` [Compound 26] was tested, and the “A: sugar transportation activity (EC50)” value was 4 µg/mL.
For `COC(=O)N1[C@@H]2CCCC[C@H]2NC2=C(C(=O)NC2)[C@H]1c1ccccc1Cl` [Compound 122], the “A: sugar transportation activity (EC50)” value was 2.4 µg/mL.
With `CCOCC(=O)N1[C@@H]2CCCC[C@H]2NC2=C(C(=O)NC2)[C@H]1c1cccc(Cl)c1C` [Compound 108] the “A: sugar transportation activity (EC50)” value was 5 µg/mL.
`CCC(=O)N1[C@@H]2CCCC[C@H]2NC2=C(C(=O)NC2)[C@H]1c1ccccc1OC` [Compound 2] was tested, and the “A: sugar transportation activity (EC50)” value was 0.77 µg/mL.
`CC(=O)OCC(=O)N1[C@@H]2CCCC[C@H]2NC2=C(C(=O)NC2)[C@H]1c1ccccc1C` [Compound 85] was tested, and the “A: sugar transportation activity (EC50)” value was 8 µg/mL.
In the case of `CCOC(=O)N1[C@@H]2CCCC[C@H]2NC2=C(C(=O)NC2)[C@H]1c1ccccc1OC` [Compound 38], the “A: sugar transportation activity (EC50)” value is reported as 4.2 µg/mL.
In the case of `CCc1ccccc1[C@@H]1C2=C(CNC2=O)N[C@@H]2CCCC[C@H]2N1C(=O)CC(=O)OC` [Compound 95], the “A: sugar transportation activity (EC50)” value is reported as 2 µg/mL.
For `COc1ccc([C@@H]2C3=C(CNC3=O)N[C@@H]3CCCC[C@H]3N2C(C)=O)cc1` [Compound 138], the “A: sugar transportation activity (EC50)” value was 4.4 µg/mL.
In the case of `CCCC(=O)N1[C@@H]2CCCC[C@H]2NC2=C(C(=O)NC2)[C@H]1c1ccccc1CC` [Compound 93], the “A: sugar transportation activity (EC50)” value is reported as 5 µg/mL.
In the case of `COC(=O)CC(=O)N1[C@@H]2CCCC[C@H]2NC2=C(C(=O)NC2)[C@H]1c1ccccc1Br` [Compound 111], the “A: sugar transportation activity (EC50)” value is reported as 1.5 µg/mL.
With `CCOc1ccccc1[C@@H]1C2=C(CNC2=O)N[C@@H]2CCCC[C@H]2N1C(=O)C(F)(F)F` [Compound 49] the “A: sugar transportation activity (EC50)” value was 5 µg/mL.
In the case of `CCc1ccccc1[C@@H]1C2=C(CNC2=O)N[C@@H]2CCCC[C@H]2N1C(=O)OC` [Compound 99], the “A: sugar transportation activity (EC50)” value is reported as 4 µg/mL.
For `COc1ccccc1[C@@H]1C2=C(CNC2=O)N[C@@H]2CCCC[C@H]2N1C(=O)C(F)(F)F` [Compound 5], the “A: sugar transportation activity (EC50)” value was 4.5 µg/mL.
In the case of `COc1ccccc1[C@@H]1C2=C(CNC2=O)N[C@@H]2CCCC[C@H]2N1C(=O)C(F)(F)C(F)(F)F` [Compound 7], the “A: sugar transportation activity (EC50)” value is reported as 9.5 µg/mL.
In the case of `CCOC(=O)N1[C@@H]2CCCC[C@H]2NC2=C(C(=O)NC2)[C@H]1c1ccccc1C` [Compound 89], the “A: sugar transportation activity (EC50)” value is reported as 7 µg/mL.
For `COc1cc(F)ccc1[C@@H]1C2=C(CNC2=O)N[C@@H]2CCCC[C@H]2N1C(C)=O` [Compound 72], the “A: sugar transportation activity (EC50)” value was 8 µg/mL.
For `CC(=O)N1[C@@H]2CCCC[C@H]2NC2=C(C(=O)NC2)[C@H]1c1ccc(Br)s1` [Compound 144], the EC50 was 19 µg/mL (≈ 46.3 µM).
In the case of `COc1ccccc1[C@@H]1C2=C(CNC2=O)N[C@@H]2CCCC[C@H]2N1C(=O)CCSC` [Compound 28], the “A: sugar transportation activity (EC50)” value is reported as 2.6 µg/mL.
